Reference: US20060235076A1, “Medicinal composition for treating infection with drug-resistant staphylococcus aureus” (priority 2003, published 2006)
≈ marks a conversion by molar mass, not a printed value. Where two headings read alike, the source gives them in different places.

Columns and labels:
MRSA and MSSA = test: Antibacterial activity of gallic acid, various gallates and multivalent phenol derivatives alone (agar plate dilution method, MIC); format: cell-based, Staphylococcus aureus; details: Staphylococcus aureus; for MIC: read-out: MIC alone
Protocol: According to the agar plate dilution method defined by Japan Society of Chemotherapy, MIC (Minimum inhibitory concentration) was determined. CAMHA was prepared by adding 50 mg/l of Ca-ion, 25 mg/l of Mg-ion, and 2% of NaCl to Mueller-Hinton II Agar (MHA), and it was used as a medium for use in the measurement of sensitivity. The bacterial liquid was incubated at 37° C. overnight and diluted to 10^6 CFU/ml with saline.
MIC for gallic acid, various gallates and multivalent phenol derivatives alone with MRSA and MSSA were determined as described in experiment 2.

[1] = system: MRSA COL and MRSA Strain No. 5; test: Potentiating effect of various gallates for antibacterial activity of oxacillin (MIC by broth microdilution method and FIC); format: cell-based, Staphylococcus aureus; details: for FIC value: combination with oxacillin
Protocol: According to the broth microdilution method defined by Japan Society of Chemotherapy, MIC was determined. CAMHA was prepared by adding 50 mg/l of Ca-ion, 25 mg/l of Mg-ion, and 2% of NaCl to MHB (Mueller-Hinton Broth), and it was used as a medium for use in the measurement of sensitivity. In 96-well microplates 100 μl of the medium for use in the measurement of sensitivity containing drugs was dispensed. The bacterial liquid was incubated at 37° C. overnight, diluted with saline and added to the plate so that the final concentration of the bacteria was 5×10^5 CFU/well. […] FIC (fractional inhibitory concentration) was calculated from the result and the potency of the effect of the combination use was evaluated.

| SMILES | MIC (MRSA and MSSA; COL) [µg/mL] | MIC (MRSA and MSSA; MRSA #1) [µg/mL] | MIC (MRSA and MSSA; MRSA #2) [µg/mL] | MIC (MRSA and MSSA; MRSA #3) [µg/mL] | MIC (MRSA and MSSA; MRSA #4) [µg/mL] | MIC (MRSA and MSSA; MRSA #5) [µg/mL] | MIC (MRSA and MSSA; MRSA #6) [µg/mL] | MIC (MRSA and MSSA; MRSA #7) [µg/mL] | MIC (MRSA and MSSA; MRSA #8) [µg/mL] | MIC (MRSA and MSSA; MRSA #9) [µg/mL] | MIC (MRSA and MSSA; MRSA #10) [µg/mL] | MIC (MRSA and MSSA; MRSA #12) [µg/mL] | MIC (MRSA and MSSA; MRSA #16) [µg/mL] | MIC (MRSA and MSSA; MRSA #17) [µg/mL] | MIC (MRSA and MSSA; MRSA #18) [µg/mL] | MIC (MRSA and MSSA; MRSA #20) [µg/mL] | MIC (MRSA and MSSA; MRSA #21) [µg/mL] | MIC (MRSA and MSSA; MRSA #22) [µg/mL] | MIC (MRSA and MSSA; MRSA #24) [µg/mL] | MIC (MRSA and MSSA; MSSA #1003) [µg/mL] | further results |
| --- | --- | --- | --- | --- | --- | --- | --- | --- | --- | --- | --- | --- | --- | --- | --- | --- | --- | --- | --- | --- | --- |
| CCCCCCCCOC(=O)c1cc(O)c(O)c(O)c1 [Octyl gallate, n-octyl gallate] | 31.3 (≈ 111 µM) | 31.3 (≈ 111 µM) | 31.3 (≈ 111 µM) | 31.3 (≈ 111 µM) | 31.3 (≈ 111 µM) | 31.3 (≈ 111 µM) | 31.3 (≈ 111 µM) | 31.3 (≈ 111 µM) | 31.3 (≈ 111 µM) | 31.3 (≈ 111 µM) | 15.6 (≈ 55.3 µM) | 31.3 (≈ 111 µM) | 31.3 (≈ 111 µM) | 31.3 (≈ 111 µM) | 31.3 (≈ 111 µM) | 31.3 (≈ 111 µM) | 31.3 (≈ 111 µM) | 31.3 (≈ 111 µM) | 31.3 (≈ 111 µM) | 31.3 (≈ 111 µM) | MIC50 (MRSA and MSSA): 31.3 µg/mL (≈ 111 µM); MIC (MRSA and MSSA; ATCC 6538 / MRSA / MSSA): 31.3 µg/mL (≈ 111 µM); MIC (MRSA and MSSA; MSSA #1010): 31.3 µg/mL (≈ 111 µM); MIC (MRSA and MSSA; MSSA #1020): 31.3 µg/mL (≈ 111 µM); MIC (MRSA and MSSA; MSSA #1023): 31.3 µg/mL (≈ 111 µM); MIC (MRSA and MSSA; MSSA #1029): 31.3 µg/mL (≈ 111 µM); MIC (MRSA and MSSA; MSSA #1032): 31.3 µg/mL (≈ 111 µM); antibacterial activity when used alone ([1]; COL Strain and Strain No. 5): most potent; FIC value ([1]; MRSA COL): 0.252; FIC value ([1]; MRSA Strain No. 5): 0.75 |
| CCCOC(=O)c1cc(O)c(O)c(O)c1 [Propyl gallate, n-propyl gallate] | 125 (≈ 589 µM) | 125 (≈ 589 µM) | 62.5 (≈ 295 µM) | 125 (≈ 589 µM) | 125 (≈ 589 µM) | 125 (≈ 589 µM) | 62.5 (≈ 295 µM) | 125 (≈ 589 µM) | 125 (≈ 589 µM) | 62.5 (≈ 295 µM) | 62.5 (≈ 295 µM) | 125 (≈ 589 µM) | 125 (≈ 589 µM) | 62.5 (≈ 295 µM) | 62.5 (≈ 295 µM) | 125 (≈ 589 µM) | 125 (≈ 589 µM) | 125 (≈ 589 µM) | 125 (≈ 589 µM) | 125 (≈ 589 µM) | MIC (MRSA and MSSA; ATCC 6538 / MRSA / MSSA, ATCC6538): 125 µg/mL (≈ 589 µM); MIC (MRSA and MSSA; MSSA #1010): 125 µg/mL (≈ 589 µM); MIC (MRSA and MSSA; MSSA #1020): 125 µg/mL (≈ 589 µM); MIC (MRSA and MSSA; MSSA #1023): 62.5 µg/mL (≈ 295 µM); MIC (MRSA and MSSA; MSSA #1029): 62.5 µg/mL (≈ 295 µM); MIC (MRSA and MSSA; MSSA #1032): 125 µg/mL (≈ 589 µM); MIC50 (MRSA and MSSA; compound alone, over all strains of Table 3-1, read-out: MIC50): 125 µg/mL (≈ 589 µM); FIC value ([1]; MRSA COL): 0.258; FIC value ([1]; MRSA Strain No. 5): 0.258 |
| CCOC(=O)c1cc(O)c(O)c(O)c1 [Ethyl gallate, ethyl gallate] | 125 (≈ 631 µM) | 125 (≈ 631 µM) | 62.5 (≈ 315 µM) | 125 (≈ 631 µM) | 62.5 (≈ 315 µM) | 125 (≈ 631 µM) | 62.5 (≈ 315 µM) | 125 (≈ 631 µM) | 125 (≈ 631 µM) | 62.5 (≈ 315 µM) | 62.5 (≈ 315 µM) | 125 (≈ 631 µM) | 125 (≈ 631 µM) | 62.5 (≈ 315 µM) | 62.5 (≈ 315 µM) | 125 (≈ 631 µM) | 125 (≈ 631 µM) | 125 (≈ 631 µM) | 125 (≈ 631 µM) | 125 (≈ 631 µM) | MIC50 (MRSA and MSSA): 125 µg/mL (≈ 631 µM); MIC (MRSA and MSSA; ATCC 6538 / MRSA / MSSA): 125 µg/mL (≈ 631 µM); MIC (MRSA and MSSA; MSSA #1010): 125 µg/mL (≈ 631 µM); MIC (MRSA and MSSA; MSSA #1020): 125 µg/mL (≈ 631 µM); MIC (MRSA and MSSA; MSSA #1023): 62.5 µg/mL (≈ 315 µM); MIC (MRSA and MSSA; MSSA #1029): 62.5 µg/mL (≈ 315 µM); MIC (MRSA and MSSA; MSSA #1032): 125 µg/mL (≈ 631 µM); FIC value ([1]; MRSA COL): 0.125; FIC value ([1]; MRSA Strain No. 5): 0.156 |
